These results are taken from ChEMBL document CHEMBL2203142, “Biomimetic in vitro oxidation of lapachol: a model to predict and analyse the in vivo phase I metabolism of bioactive compounds” (Eur J Med Chem, 2012).

What all share (parameters): dose 25 mg/kg
One series has as its system Rattus norvegicus. In words: Toxicity in Wistar rat at 25 mg/kg. Conditions: in vivo. It counts as organism-based.
Series [1] is described as follows: Plasma concentration in Wistar rat at 25 mg/kg after 1.5 hrs. It counts as ADME, organism-based.
The nature of series [2]: Plasma concentration in Wistar rat at 25 mg/kg after 12 hrs. It counts as ADME, organism-based.
Series [3] has as its system Plasma. In words: Metabolic stability in Wistar rat plasma assessed as alpha-lapachone level at 25 mg/kg after 12 hrs. It counts as ADME, organism-based. The conditions noted are these: in vivo.
For series [4], the system named is Plasma. In words: Metabolic stability in Wistar rat plasma assessed as dehydro-alpha-lapachone level at 25 mg/kg after 1.5 hrs. It counts as ADME, organism-based. Conditions: in vivo.
The test system of series [5] is Plasma. In words: Metabolic stability in Wistar rat plasma assessed as alpha-lapachone level at 25 mg/kg after 1.5 hrs. It counts as ADME, organism-based. The conditions noted are these: in vivo.
Series [6] has as its system Plasma. As to the kind of experiment: Metabolic stability in Wistar rat plasma assessed as alpha-lapachone level at 25 mg/kg after 3 hrs. It counts as ADME, organism-based. Conditions: in vivo.

Regarding `CC(C)=CCC1=C(O)C(=O)c2ccccc2C1=O` [LAPACHOL], the Activity result in the series on Rattus norvegicus is “Non-toxic”. In series [1], the concentration at 1.5 h came to 37000 ng/mL. Further, the concentration at 12 h in series [2] is 2000 ng/mL. Moreover, the Drug metabolism was found to be 0.7 µg/mL in the series with Plasma [3], 0.6 µg/mL in the series on Plasma [4], 1.4 µg/mL in the series on Plasma [5] and 6 µg/mL in the series on Plasma [6].
